Like-named read-outs stand apart in the source and are kept apart here.
Key:
[1] = system: wild-type HIV-1; assay: microbe, parasite or virus in culture; type: cell-based
[2] = administration to humans, plasma concentrations (general statements); type: in vivo, human
From the text: Compound (b) is preferably selected from the group consisting of Indinavir, Ritonavir, and pharmaceutically acceptable salts thereof, and is most preferably Indinavir or a pharmaceutically acceptable salt or ester thereof. Particularly preferred is the composition in which (a) is the sulfate salt of Compound A and (b) is the sulfate salt of Indinavir. It has been discovered that the foregoing compounds of (b), when employed in combination with Compound A, can increase the plasma concentration of Compound A to a level having substantial antiviral activity.

[3] = Pharmacokinetic Study of Compound A in Healthy Human Males (Example 10); type: in vivo; details: 20 mg single oral dose, suspension, fasted
Method: A double-blind, single-rising dose, alternating two-panel, four-period, placebo-controlled study was conducted for Compound A in healthy adult males in the fasted state. Single doses of 20, 50, 100, 200, 400, 800 and 1200 mg of Compound A, or placebo, were administered as an oral suspension of the sulfate salt form of Compound A in sterile water. Each subject received increasing single oral doses of Compound A or placebo during each of the four treatment periods in alternate panels. Panel A dosage levels were 20, 100, 400 mg, and 400 mg with food. Panel B dosage levels were 50, 200, 800 and 1200 mg. For each period, 6 subjects received Compound A and 2 subjects received placebo as allocated by a randomized schedule. In Panel A, subjects who received 400 mg of Compound A also received 400 mg of Compound A with food. The safety of the subjects was monitored prior and subsequent to dosing by clinical adverse event reporting, measurement of vital signs, physical examinations, blood and urine laboratory safety tests, and ECGs. Plasma concentrations of Compound A were determined predose and at 0.5, 1, 1.5, 2, 3, 4, 6, 10, 12, 24, 32 and 48 hours following each single dose in each period, using a reverse-phase HPLC column switching method with fluorescence detection.

[4] = Pharmacokinetic Study of Compound A Alone and in Combination with Indinavir in Healthy Human Males (Example 11); type: in vivo
Method: A double-blind, single-rising dose, alternating two-panel, four-period, placebo-controlled study was conducted for Compound A alone and in combination with Indinavir in healthy adult males in the fasted state. […] All of the doses of Compound A were administered as the sulfate salt form of Compound A. All of the Compound A doses were oral suspensions of the sulfate salt form in sterile water, except that the 600-mg doses administered to Panel B in the fourth period were tablets. Indinavir was administered in the form of CRIXIVAN® capsules. The safety of the subjects was monitored prior and subsequent to dosing by clinical adverse event reporting, measurement of vital signs, physical examinations, blood and urine laboratory safety tests, and ECGs. Plasma concentrations of Compound A were determined predose and at 0.5, 1, 1.5, 2, 3, 4, 6, 8, 12, 16, 20, 24, 30, 36 and 48 hours following each single dose in each period, using a reverse-phase HPLC column switching method with fluorescence detection.

[5] = Pharmacokinetic Study in Healthy Human Males of Compound A in Combination with Indinavir with and without Fasting (Example 12); type: in vivo; details: co-administered with Indinavir, with food vs without food
Method: All of the subjects received the regimen once in the fasted state and once with a high-fat breakfast. The two single-dose treatments (fasted, fed) were administered in randomized crossover fashion, separated by one week. For treatments with food a breakfast consisting of two eggs, two strips of bacon, toast with two pats of butter (2×12.5 g), 120 g of fried potatoes and 240 ml of whole milk were consumed in no more than 15 minutes, and the test medication was administered within 5 minutes after completion of the breakfast.
All of the doses of Compound A were administered as the sulfate salt form of Compound A. All of the Compound A doses were tablets containing 200 mg of Compound A. Other ingredients in the tablets included microcrystalline cellulose (Avicel PH 101), mannitol SD 200, croscarmellose sodium, hydroxypropyl cellulose and magnesium stearate. […]
The safety of the subjects was monitored prior and subsequent to dosing by clinical adverse event reporting, measurement of vital signs, physical examinations, blood and urine laboratory safety tests, and ECGs. Plasma concentrations of Compound A were determined predose and at 0.5, 1, 1.5, 2, 3, 4, 6, 8, 12, 16, 20, 24, 30, 36 and 48 hours following each single dose in each period, using a reverse-phase HPLC column switching method with fluorescence detection.

[6] = Compound A in combination with Indinavir
[7] = 200 mg Compound A + 800 mg Indinavir relative to 200 mg Compound A alone

inter-individual variation in the plasma levels ([2]; humans, Compound A alone, vs Indinavir)	plasma concentrations of Compound A ([2]; humans, relative to comparable doses of Indinavir)	plasma concentrations [3]	AUC increase (times higher) [4, 7]	C8 hrs increase (times higher) [4, 7] [×]	Cmax increase (times higher) [4, 7]	AUC increase (fold higher) ([4]; 600 mg Compound A + 800 mg Indinavir relative to Compound A alone)	Compound A plasma levels, fed versus fasted [5]	SMILES	IC95 ([1]; Human immunodeficiency virus 1, wild-type HIV-1, Cell Spread Assay, read-out: CIC95) [nM]	potency relative to Indinavir ([1]; wild type HIV-1, in vitro)	effect of Indinavir on inter-individual variation of Compound A plasma concentrations [2, 6]	effect of Indinavir on plasma concentrations of Compound A [2, 6]	plasma concentration increase with successively higher doses ([2]; humans, dose proportionality)	IC95 ([1]; Human immunodeficiency virus 1, read-out: CIC95) [nM]
significant inter-individual variation	very low plasma concentrations	below the assay quantification limit	about 30 ×	~46	about 19 ×	about 18 fold	higher Compound A plasma levels	CC(C)(C)NC(=O)[C@@H]1CN(Cc2cc3ccccc3o2)CCN1C[C@@H](O)C[C@@H](Cc1ccccc1)C(=O)N[C@H]1c2ccccc2C[C@H]1O [Compound A, N-(2(R)-hydroxy-1(S)-indanyl)-2(R)-phenylmethyl-4-(S)-hydroxy-5-(1-(4-(2-benzo[b]furanylmethyl)-2(S)-N'-(t-butylcarboxamido)-piperazinyl))-pentaneamide]	25	approximately two-fold greater potency than Indinavir	markedly reduces inter-individual variation	substantially increase the plasma concentrations	greater than proportional increases in plasma concentrations	
								CC(C)(C)NC(=O)[C@@H]1CN(Cc2cccnc2)CCN1C[C@@H](O)C[C@@H](Cc1ccccc1)C(=O)N[C@H]1c2ccccc2C[C@H]1O [Indinavir, N-(2(R)-hydroxy-1(S)-indanyl)2(R)-phenylmethyl-4-(S)-hydroxy-5-(1-(4-(3-pyridylmethyl)-2(S)-N'-(t-butylcarboxamido)-piperazinyl))-pentaneamide, reference compound]						50

Reference: US6180634A, “Combination therapy for the treatment of AIDS” (priority 1998, dated 2001)
